Measurements published in patent publication US8163774B2, “Amide-substituted 8-N-benzimidazoles, method for the production thereof, and use of the same as medicaments” (Sanofi-Aventis, priority 2005, dated 2012).
pIC50: −log10 of the molar value.

Target: T1, DPP-IV from porcine kidneys (Sus scrofa, UniProt P22411)
T1 construct: DPP-IV from porcine kidneys (Sigma, Munich); purchased Sigma, Munich; host or cells: porcine kidney tissue
Assay: Measurement of the DPP-IV activity (fluorimetric, H-Ala-Pro-AFC substrate)
Format: biochemical
Details: DPP-IV 1 mU/ml, substrate H-Ala-Pro-AFC 15 μM, Tris/HCl pH 7.4, room temperature
Description: Measurement of the DPP-IV activity:
DPP-IV from porcine kidneys (Sigma, Munich)
H-Ala-Pro-AFC (Bachem, Weil am Rhein)
DPP-IV (1 mU/ml, end concentration)
H-Ala-Pro-AFC (15 μm end concentration)
in Tris/HCl (40 mM, pH 7.4), total volume 0.2 ml
The reaction was performed at room temperature for different periods (typically 10 minutes) and stopped at the end of the reaction by adding 20 μl of ZnCl2 (1 M). The conversion of H-AIa-Pro-AFC was determined fluorimetrically by measuring the emission at 535 nm on excitation at 405 nm. In the case of addition of inhibitors, the buffer volume added was adjusted such that a total volume of the test mixture of 200 μl was maintained.
IC50 values for inhibitors were determined by varying the inhibitor concentrations at the given substrate concentration of 15 μM. Ki and Km values were determined by corresponding variation of substrate and inhibitor concentration as described (Dixon, M. and Webb, E. C. (1979) Enzymes, third edition, pp. 47-206, Academic Press). The values for Km, IC50 and Ki were calculated using a commercially available software package (Leatherbarrow, R. J. (1992) GraFit Version 3.0, Erithacus Software Ltd. Staines, U.K.).

T1 sequence (P22411 whole entry): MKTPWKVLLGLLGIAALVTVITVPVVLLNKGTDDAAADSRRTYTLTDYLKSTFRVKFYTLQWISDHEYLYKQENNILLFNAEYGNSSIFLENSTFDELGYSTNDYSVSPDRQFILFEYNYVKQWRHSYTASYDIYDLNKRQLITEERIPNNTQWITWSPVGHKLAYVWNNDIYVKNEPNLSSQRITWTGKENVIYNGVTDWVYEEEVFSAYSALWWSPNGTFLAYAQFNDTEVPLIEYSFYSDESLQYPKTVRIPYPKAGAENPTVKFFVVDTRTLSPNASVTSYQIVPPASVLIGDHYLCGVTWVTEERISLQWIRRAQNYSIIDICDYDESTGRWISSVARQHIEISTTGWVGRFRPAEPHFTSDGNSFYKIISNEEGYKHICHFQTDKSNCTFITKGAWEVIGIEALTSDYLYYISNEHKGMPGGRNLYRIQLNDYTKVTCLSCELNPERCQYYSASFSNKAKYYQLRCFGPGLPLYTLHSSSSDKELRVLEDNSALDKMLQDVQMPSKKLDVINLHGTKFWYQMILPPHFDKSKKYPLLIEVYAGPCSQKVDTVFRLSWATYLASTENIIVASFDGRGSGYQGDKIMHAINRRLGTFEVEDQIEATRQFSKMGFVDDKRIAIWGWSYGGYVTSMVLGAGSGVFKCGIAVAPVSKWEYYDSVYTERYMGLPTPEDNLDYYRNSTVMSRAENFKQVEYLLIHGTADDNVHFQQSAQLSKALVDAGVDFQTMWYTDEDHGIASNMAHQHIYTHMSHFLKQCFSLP

pIC50	SMILES
6.00	N[C@@H]1CCCN(c2nc3ccc(C(=O)NCc4cccc(C(F)(F)F)c4)cc3n2Cc2ccc(F)cc2)C1 [Example 2]
5.60	N[C@@H]1CCCN(c2nc3ccc(C(=O)NCc4cccnc4)cc3n2Cc2ccc(F)cc2)C1 [Example 5]
5.37	N[C@@H]1CCCN(c2nc3cc(C(=O)NCc4ccc(Cl)cc4)ccc3n2Cc2ccc(F)cc2)C1 [Example 6]
5.74	CC(C)=CCn1c(N2CCC[C@@H](N)C2)nc2ccc(C(=O)Nc3ccc(F)cc3)cc21 [Example 11]
